The target in experiment [1] is GDP-bound NRAS wild-type protein (Homo sapiens, UniProt P01111). Put plainly: Binding to NRAS by surface plasmon resonance (SPR), Single Cycle Kinetics. Conditions: KD ratio, GDP-bound NRAS wild-type vs GDP-bound KRAS wild-type, SPR.
Experiment [2] addresses GDP-bound HRAS wild-type protein (Homo sapiens, UniProt P01112). Put plainly: Binding to HRAS by surface plasmon resonance (SPR), Single Cycle Kinetics. Conditions: KD ratio, GDP-bound HRAS wild-type vs GDP-bound KRAS wild-type, SPR.

GDP-bound NRAS wild-type protein, sequence (P01111 whole entry): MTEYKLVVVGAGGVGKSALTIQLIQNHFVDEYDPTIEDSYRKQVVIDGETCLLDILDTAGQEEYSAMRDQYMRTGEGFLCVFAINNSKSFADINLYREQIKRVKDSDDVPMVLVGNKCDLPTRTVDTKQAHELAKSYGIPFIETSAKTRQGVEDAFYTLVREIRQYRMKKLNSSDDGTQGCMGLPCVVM
GDP-bound HRAS wild-type protein, sequence (P01112 whole entry): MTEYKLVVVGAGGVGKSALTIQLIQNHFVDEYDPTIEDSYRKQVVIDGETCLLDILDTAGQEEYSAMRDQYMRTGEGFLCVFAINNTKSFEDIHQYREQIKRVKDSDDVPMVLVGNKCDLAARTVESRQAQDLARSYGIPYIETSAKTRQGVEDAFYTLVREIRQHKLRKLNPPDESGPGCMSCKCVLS

Take `CC[C@H](C)[C@@H]1NC(=O)[C@H](CCOC)N(C)C(=O)C[C@@H](C(=O)N(C)CC)N(C)C(=O)[C@H](C2CCCC2)N(C)C(=O)C2(CC(C)(C)C2)NC(=O)[C@@H]2C[C@H](C)CN2C(=O)[C@H](CCc2cc(F)c(C(F)(F)F)c(F)c2)NC(=O)CN(C)C(=O)[C@H](Cc2ccc(C(F)(F)F)cc2)N2CC/C=C\C[C@@H](C2=O)N(C)C(=O)CN(C)C1=O` [PP1972]: in experiment [1], the “NRAS/KRAS (ratio of KD value for NRAS to KD value for KRAS)” value is “A (a compound having 10 or more and less than 20 is denoted as A)”. Also, the “HRAS/KRAS (ratio of KD value for HRAS to KD value for KRAS)” value in experiment [2] is “A (a compound having 10 or more and less than 20 is denoted as A)”.
Turning to `CCCOC[C@H]1C(=O)N[C@@H]([C@@H](C)CC)C(=O)N(C)CC(=O)N(C)[C@H]2C/C=C\CCN(C2=O)[C@@H](Cc2ccc(C(F)(F)F)cc2)C(=O)N(C)CC(=O)N[C@@H](CCc2ccc(C(F)(F)F)c(OC)c2)C(=O)N2C[C@H](OCC)C[C@H]2C(=O)NC2(CC(C)(C)C2)C(=O)N(C)[C@@H](C2CCCC2)C(=O)N(C)[C@H](C(=O)N(C)CC)CC(=O)N1C` [PP1973], the “NRAS/KRAS (ratio of KD value for NRAS to KD value for KRAS)” value in experiment [1] was “A (a compound having 10 or more and less than 20 is denoted as A)”. The “HRAS/KRAS (ratio of KD value for HRAS to KD value for KRAS)” value in experiment [2] is “B (a compound having 3 or more and less than 10 is denoted as B)”.
Regarding `CCCN(C)C(=O)[C@@H]1CC(=O)N(C)[C@@H](CCOC)C(=O)N[C@@H]([C@@H](C)CC)C(=O)N(C)CC(=O)N(C)[C@H]2C/C=C\CCN(C2=O)[C@@H](Cc2ccc(C(F)(F)F)cc2)C(=O)N(C)CC(=O)N[C@@H](CCc2cc(F)c(C(F)(F)F)c(F)c2)C(=O)N2C[C@@H](C)C[C@H]2C(=O)NC2(CC(C)(C)C2)C(=O)N(C)[C@@H](C2CCCC2)C(=O)N1C` [PP1974], the “NRAS/KRAS (ratio of KD value for NRAS to KD value for KRAS)” value in experiment [1] is “A (a compound having 10 or more and less than 20 is denoted as A)”. Moreover, in experiment [2], the “HRAS/KRAS (ratio of KD value for HRAS to KD value for KRAS)” value is “A (a compound having 10 or more and less than 20 is denoted as A)”.
Take `CCCN(C)C(=O)[C@@H]1CC(=O)N(C)[C@@H](CCOC)C(=O)N[C@@H]([C@@H](C)CC)C(=O)N(C)CC(=O)N(C)[C@H]2C/C=C\CCN(C2=O)[C@@H](Cc2ccc(C(F)(F)F)cc2)C(=O)N(C)CC(=O)N[C@@H](CCc2ccc(C(F)(F)F)c(OC)c2)C(=O)N2C[C@H](OCC)C[C@H]2C(=O)NC2(CC(C)(C)C2)C(=O)N(C)[C@@H](C2CCCC2)C(=O)N1C` [PP1975]: in experiment [1], the “NRAS/KRAS (ratio of KD value for NRAS to KD value for KRAS)” value is “A (a compound having 10 or more and less than 20 is denoted as A)”. Moreover, the “HRAS/KRAS (ratio of KD value for HRAS to KD value for KRAS)” value in experiment [2] is “A (a compound having 10 or more and less than 20 is denoted as A)”.
As for `CC[C@H](C)[C@@H]1NC(=O)[C@H](C(C)C)N(C)C(=O)C[C@@H](C(=O)N(C)CC)N(C)C(=O)[C@H](C2CCCC2)N(C)C(=O)C2(CC(C)(C)C2)NC(=O)[C@@H]2C[C@H](C)CN2C(=O)[C@H](CCc2cc(F)c(C(F)(F)F)c(F)c2)NC(=O)CN(C)C(=O)[C@H](Cc2ccc(C(F)(F)F)cc2)N2CC/C=C\C[C@@H](C2=O)N(C)C(=O)CN(C)C1=O` [PP1976], in experiment [1], the “NRAS/KRAS (ratio of KD value for NRAS to KD value for KRAS)” value is given as “AA (a compound having 20 or more is denoted as AA)”. Further, the “HRAS/KRAS (ratio of KD value for HRAS to KD value for KRAS)” value in experiment [2] is “A (a compound having 10 or more and less than 20 is denoted as A)”.
With `CCO[C@@H]1C[C@H]2C(=O)NC3(CC(C)(C)C3)C(=O)N(C)[C@@H](C3CCCC3)C(=O)N(C)[C@H](C(=O)N(C)CC)CC(=O)N(C)[C@@H](C(C)C)C(=O)N[C@@H]([C@@H](C)CC)C(=O)N(C)CC(=O)N(C)[C@H]3C/C=C\CCN(C3=O)[C@@H](Cc3ccc(C(F)(F)F)cc3)C(=O)N(C)CC(=O)N[C@@H](CCc3ccc(C(F)(F)F)c(OC)c3)C(=O)N2C1` [PP1977], the “NRAS/KRAS (ratio of KD value for NRAS to KD value for KRAS)” value in experiment [1] is “AA (a compound having 20 or more is denoted as AA)”. Further, the “HRAS/KRAS (ratio of KD value for HRAS to KD value for KRAS)” value in experiment [2] is “A (a compound having 10 or more and less than 20 is denoted as A)”.
Regarding `CCO[C@@H]1C[C@H]2C(=O)NC3(CC(C)(C)C3)C(=O)N(C)[C@@H](C3CCCC3)C(=O)N(C)[C@H](C(=O)N(C)C)CC(=O)N(C)[C@@H](C(C)C)C(=O)N[C@@H]([C@@H](C)CC)C(=O)N(C)CC(=O)N(C)[C@H]3C/C=C\CCN(C3=O)[C@@H](Cc3ccc(C(F)(F)F)cc3)C(=O)N(C)CC(=O)N[C@@H](CCc3ccc(C(F)(F)F)c(OC)c3)C(=O)N2C1` [PP1979], the “NRAS/KRAS (ratio of KD value for NRAS to KD value for KRAS)” value in experiment [1] was “AA (a compound having 20 or more is denoted as AA)”. The “HRAS/KRAS (ratio of KD value for HRAS to KD value for KRAS)” value in experiment [2] was “A (a compound having 10 or more and less than 20 is denoted as A)”.
In the case of `CC[C@H](C)[C@@H]1NC(=O)[C@H](C2CC2)N(C)C(=O)C[C@@H](C(=O)N(C)CC)N(C)C(=O)[C@H](C2CCCC2)N(C)C(=O)C2(CC(C)(C)C2)NC(=O)[C@@H]2C[C@H](C)CN2C(=O)[C@H](CCc2cc(F)c(C(F)(F)F)c(F)c2)NC(=O)CN(C)C(=O)[C@H](Cc2ccc(C(F)(F)F)cc2)N2CC/C=C\C[C@@H](C2=O)N(C)C(=O)CN(C)C1=O` [PP1980], the “NRAS/KRAS (ratio of KD value for NRAS to KD value for KRAS)” value in experiment [1] is “A (a compound having 10 or more and less than 20 is denoted as A)”. The “HRAS/KRAS (ratio of KD value for HRAS to KD value for KRAS)” value in experiment [2] was “B (a compound having 3 or more and less than 10 is denoted as B)”.
`CCO[C@@H]1C[C@H]2C(=O)NC3(CC(C)(C)C3)C(=O)N(C)[C@@H](C3CCCC3)C(=O)N(C)[C@H](C(=O)N(C)CC)CC(=O)N(C)[C@@H](C3CC3)C(=O)N[C@@H]([C@@H](C)CC)C(=O)N(C)CC(=O)N(C)[C@H]3C/C=C\CCN(C3=O)[C@@H](Cc3ccc(C(F)(F)F)cc3)C(=O)N(C)CC(=O)N[C@@H](CCc3ccc(C(F)(F)F)c(OC)c3)C(=O)N2C1` [PP1981]: the “NRAS/KRAS (ratio of KD value for NRAS to KD value for KRAS)” value in experiment [1] is “A (a compound having 10 or more and less than 20 is denoted as A)”. In addition, in experiment [2], the “HRAS/KRAS (ratio of KD value for HRAS to KD value for KRAS)” value was “A (a compound having 10 or more and less than 20 is denoted as A)”.
`CCCN(C)C(=O)[C@@H]1CC(=O)N(C)[C@@H](C2CC2)C(=O)N[C@@H]([C@@H](C)CC)C(=O)N(C)CC(=O)N(C)[C@H]2C/C=C\CCN(C2=O)[C@@H](Cc2ccc(C(F)(F)F)cc2)C(=O)N(C)CC(=O)N[C@@H](CCc2ccc(C(F)(F)F)c(OC)c2)C(=O)N2C[C@H](OCC)C[C@H]2C(=O)NC2(CC(C)(C)C2)C(=O)N(C)[C@@H](C2CCCC2)C(=O)N1C` [PP1983]: the “NRAS/KRAS (ratio of KD value for NRAS to KD value for KRAS)” value in experiment [1] is “AA (a compound having 20 or more is denoted as AA)”. Besides, the “HRAS/KRAS (ratio of KD value for HRAS to KD value for KRAS)” value in experiment [2] is “A (a compound having 10 or more and less than 20 is denoted as A)”.
For `CC[C@H](C)[C@@H]1NC(=O)[C@H](C2CCC2)N(C)C(=O)C[C@@H](C(=O)N(C)CC)N(C)C(=O)[C@H](C2CCCC2)N(C)C(=O)C2(CC(C)(C)C2)NC(=O)[C@@H]2C[C@H](C)CN2C(=O)[C@H](CCc2cc(F)c(C(F)(F)F)c(F)c2)NC(=O)CN(C)C(=O)[C@H](Cc2ccc(C(F)(F)F)cc2)N2CC/C=C\C[C@@H](C2=O)N(C)C(=O)CN(C)C1=O` [PP1984], the “NRAS/KRAS (ratio of KD value for NRAS to KD value for KRAS)” value in experiment [1] is “A (a compound having 10 or more and less than 20 is denoted as A)”. For the same compound, the “HRAS/KRAS (ratio of KD value for HRAS to KD value for KRAS)” value in experiment [2] is “A (a compound having 10 or more and less than 20 is denoted as A)”.
